# Experiments:
# Assay type in all cases: physicochemical
# [1] = Assay of solubility of phosphotungstic acid in organic solvent; conditions: in the listed organic solvent, room temperature
# Protocol: Phosphotungstic acid was added to an organic solvent at room temperature. Phosphotungstic acid was continuously added until it was not able to dissolve therein, and solubility was determined based on the entire amount of phosphotungstic acid added.
# [2] = Assay of solubility of glucose in organic solvent; conditions: in the listed organic solvent, room temperature
# Protocol: Glucose was added to an organic solvent at room temperature. Glucose was continuously added until it was not able to dissolve therein, and solubility was determined based on the entire amount of glucose added.
# [3] = Distribution ratio of phosphotungstic acid to organic solvent and water (powdery phosphotungstic acid); conditions: ICP
# Protocol: (§1) The resultant was stirred and allowed to stand, followed by phase separation. Samples were obtained from each phase in an amount of 1 ml and the samples were dried using a centrifuge. The dried specimens were analyzed by the inductively coupled plasma (ICP) mass spectrometer. Water was dissolved in each phase in order to identify an aqueous phase.
# [4] = Distribution ratio of phosphotungstic acid to organic solvent and water (saturated aqueous solution of phosphotungstic acid); conditions: ICP
# Protocol: as §1, with “ICP” for “inductively coupled plasma (ICP)”
# [5] = Heating reaction test with phosphotungstic acid triacontahydrate: distribution of phosphotungstic acid; conditions: phosphotungstic acid triacontahydrate 30 g + glucose 5 g, heated
# Protocol: (§2) Phosphotungstic acid triacontahydrate (30 g) was mixed with glucose (5 g), the resultant was heated, and various types of the selected organic solvents were added in amounts 3 times greater than the minimal amount of the solvent necessary to dissolve phosphotungstic acid (by volume). The resultant was stirred and allowed to stand, followed by phase separation. The samples were dried using a centrifuge, the phosphotungstic acid content in the dried specimens was analyzed by the ICP mass spectrometer, and glucose content was assayed via liquid chromatography.
# [6] = Heating reaction test with phosphotungstic acid triacontahydrate: distribution of glucose; conditions: phosphotungstic acid triacontahydrate 30 g + glucose 5 g, heated
# Protocol: as §2
# [7] = Heating reaction test with saturated aqueous solution of phosphotungstic acid: distribution of phosphotungstic acid; conditions: saturated aqueous solution of phosphotungstic acid triacontahydrate 30 g + glucose 5 g, heated
# Protocol: (§3) A saturated aqueous solution containing 30 g of phosphotungstic acid triacontahydrate was mixed with 5 g of glucose, the mixture was heated, and various types of the selected organic solvents were then added thereto in amounts 3 times greater than the minimal amount of the solvent necessary to dissolve phosphotungstic acid (by volume). The resultant was stirred and allowed to stand, followed by phase separation. Samples were dried using a centrifuge, the phosphotungstic acid content in the dried specimens was analyzed by the ICP mass spectrometer, and glucose content was assayed via liquid chromatography.
# [8] = Heating reaction test with saturated aqueous solution of phosphotungstic acid: distribution of glucose; conditions: saturated aqueous solution of phosphotungstic acid triacontahydrate 30 g + glucose 5 g, heated
# Protocol: as §3
# [9] = Assay of distribution ratio of glucose (saturated aqueous solution of phosphotungstic acid)
# Protocol: n-Butyl ethyl ether (26.67 ml) was added to a saturated aqueous solution containing 30 g of phosphotungstic acid. The resultant was stirred and allowed to stand, followed by phase separation. Glucose was continuously added until glucose was not able to dissolve in each phase. Solubility of glucose in n-butyl ethyl ether was determined based on the amount of glucose dissolved.
Structure (SMILES),Solubility of phosphotungstic acid (wt %) [1] [wt %],Solubility of glucose (wt %) [2] [wt %],Distribution ratio of phosphotungstic acid (based on tungsten) (%) ([3]; First phase (from top)),Distribution ratio of phosphotungstic acid (based on tungsten) (%) ([3]; Second phase (from top)),Distribution ratio of phosphotungstic acid (based on tungsten) (%) ([4]; First phase (from top)),Distribution ratio of phosphotungstic acid (based on tungsten) (%) ([4]; Second phase (from top)),Distribution ratio of phosphotungstic acid (based on tungsten) (%) ([4]; Third phase (from top)),Distribution ratio of phosphotungstic acid (based on tungsten) (%) ([5]; First phase),Distribution ratio of phosphotungstic acid (based on tungsten) (%) ([5]; Second phase (aqueous phase)),Distribution ratio of glucose (%) ([6]; Second phase (aqueous phase)),Distribution ratio of phosphotungstic acid (based on tungsten) (%) ([7]; First phase),Distribution ratio of phosphotungstic acid (based on tungsten) (%) ([7]; Second phase (aqueous phase)),Distribution ratio of glucose (%) ([8]; First phase),Distribution ratio of glucose (%) ([8]; Second phase (aqueous phase)),Distribution ratio of phosphotungstic acid (based on tungsten) (%) ([3]; Third phase (from top)),Distribution ratio of phosphotungstic acid (based on tungsten) (%) ([5]; Third phase),Distribution ratio of glucose (%) ([6]; Third phase),Distribution ratio of phosphotungstic acid (based on tungsten) (%) ([7]; Third phase),Distribution ratio of glucose (%) ([8]; Third phase),other results
CCCCCCCCO [1-Octanol],200,<0.045,97.7,2.3,1.3,97.3,1.4,96.9,3.1,100,96.8,3.2,0,100,–,–,–,–,–,–
CCCCCCC(C)O (stereo not shown) [2-Octanol],200,<0.043,97.9,2.1,1.0,97.7,1.3,98.3,1.7,100,98.1,1.9,0.8,99.2,–,–,–,–,–,–
CCOCC [Diethyl ether],>229.3,<0.025,0.01,99.4,0.01,1.5,98.5,0.03,1.7,100,0.04,1.6,0,100,0.6,98.3,0,98.3,0,Distribution ratio of glucose (%) ([6]; First phase): 0%
CCCCOCC [n-Butyl ethyl ether],300,<0.03,0.1,2.9,0.1,5.1,94.8,0.1,10.2,100,0.1,8.9,–,100,97.0,89.7,0,91.0,0,"Distribution ratio of phosphotungstic acid (based on tungsten) (%) ([3]; Third phase (from top), listed as n-butyl ethyl ether): 97%; Distribution ratio of glucose (%) ([9]; First phase): 0.1%; Distribution ratio of glucose (%) ([9]; Second phase (aqueous)): 97.7%; Distribution ratio of glucose (%) ([9]; Third phase): 2.2%"

# From patent US20100324282A1, “METHOD FOR SEPARATING HETEROPOLYACID” (TOYOTA JIDOSHA KABUSHIKI KAISHA, priority 2009, published 2010)
